Data as given in patent publication US20090036426A1 (AMPLA Pharmaceuticals Inc., priority 2007, published 2009).

Legend:
[1] = biological target: T1, CB1 receptor (Homo sapiens, UniProt P21554); assay: Functional activity versus the CB1 receptor (statement, no method)
[2] = biological target: T2, Human Cannabinoid 1 (CB1) receptor (Homo sapiens, UniProt P21554); assay: Ca2+i response to 2-AG dose-response in CB1 cells with or without compound (DSIS flow cytometry); assay type: cell-based; settings: 2-AG with or without compound, FIG. 2
T2 construct: expressed in transfected cells; host or cells: CHO cells stably expressing the GqΔGi chimera; clonal CB1 line
T2 sequence (P21554 whole entry): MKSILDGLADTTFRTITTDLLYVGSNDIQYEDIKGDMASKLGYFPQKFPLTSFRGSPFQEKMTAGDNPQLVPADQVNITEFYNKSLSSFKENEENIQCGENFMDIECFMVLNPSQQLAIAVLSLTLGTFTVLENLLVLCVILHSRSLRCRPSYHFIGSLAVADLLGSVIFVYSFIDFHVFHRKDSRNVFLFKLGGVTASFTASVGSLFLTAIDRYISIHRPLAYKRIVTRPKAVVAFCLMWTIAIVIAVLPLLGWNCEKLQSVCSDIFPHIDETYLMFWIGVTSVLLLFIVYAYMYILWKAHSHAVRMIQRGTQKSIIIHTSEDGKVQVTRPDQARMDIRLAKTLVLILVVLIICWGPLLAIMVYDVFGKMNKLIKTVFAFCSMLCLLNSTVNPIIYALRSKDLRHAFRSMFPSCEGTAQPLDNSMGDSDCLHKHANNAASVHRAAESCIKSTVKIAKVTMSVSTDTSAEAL
From the text: cDNA for the G protein GqΔGi chimera was generated by PCR and inserted into the polylinker region of the pcDNA3/hygro+ vector (Invitrogen). Stable expression of GqΔGi chimera protein in CHO cell line was generated under hygromycin selection. Human Cannabinoid 1 (CB1) cDNA was inserted into the polylinker region of the pcDNA3.1/(+) vector (Invitrogen) and DNA was introduced into the GqΔGi/CHO cell line by Lipofectamine reagent (Invitrogen). Cell lines stably expressing the CB receptor with GqΔGi chimera protein were generated by double selection with hygromycin and G418 (Coward, P., et al. 1999. Chimeric G proteins allow a high-throughput signaling assay of Gi-coupled receptors. Anal Biochem. 270:242-8).
CB1 Cells were plated 24-48 hours in advance, and were harvested with trypsin at ˜80% confluency. Cells were then centrifuged and resuspended two times in Hybridoma Media, the final time at a concentration of 1×10^6 cells/mL. Two μM of Indo-1 were added and cells were incubated for 1 hour on a rotator at room temperature. […]
The probe-loaded CB1 and Control cell mixture was placed in the Cell Suspension System on the DSIS where they were continuously rocked to keep them in a suspended state. […] The DSIS software, NVS Sampler, recorded a timing file and the CyAn software, Summit, recorded a data file. […]

[3] = biological target: T3, CB2 receptor (Homo sapiens, UniProt P34972); assay: Ca2+i response to 2-AG dose-response in CB2 receptor bearing cells with or without compound; assay type: cell-based; settings: 2-AG with or without compound, FIG. 2
T3 construct: host or cells: CB2 receptor bearing cells (host line not described)
T3 sequence (P34972 whole entry): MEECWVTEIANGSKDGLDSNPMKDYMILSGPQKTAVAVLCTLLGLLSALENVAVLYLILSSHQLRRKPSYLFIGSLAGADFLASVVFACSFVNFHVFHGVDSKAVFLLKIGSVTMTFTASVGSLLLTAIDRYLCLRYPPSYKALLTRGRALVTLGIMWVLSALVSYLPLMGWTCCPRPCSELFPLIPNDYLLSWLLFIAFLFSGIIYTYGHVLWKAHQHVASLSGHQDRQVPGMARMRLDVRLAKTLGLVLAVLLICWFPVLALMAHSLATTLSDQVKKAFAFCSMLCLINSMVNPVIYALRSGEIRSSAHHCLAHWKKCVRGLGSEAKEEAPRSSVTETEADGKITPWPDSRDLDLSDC

[4] = biological target: T4, mouse CB1 (mouse brain membrane) (Mus musculus, UniProt P47746); assay: Competition ligand binding assay, mouse brain membrane preparations
T4 construct: or mouse brain membrane preparations in 96-well plate format; from tissue; host or cells: mouse brain membranes
T4 sequence (P47746 whole entry): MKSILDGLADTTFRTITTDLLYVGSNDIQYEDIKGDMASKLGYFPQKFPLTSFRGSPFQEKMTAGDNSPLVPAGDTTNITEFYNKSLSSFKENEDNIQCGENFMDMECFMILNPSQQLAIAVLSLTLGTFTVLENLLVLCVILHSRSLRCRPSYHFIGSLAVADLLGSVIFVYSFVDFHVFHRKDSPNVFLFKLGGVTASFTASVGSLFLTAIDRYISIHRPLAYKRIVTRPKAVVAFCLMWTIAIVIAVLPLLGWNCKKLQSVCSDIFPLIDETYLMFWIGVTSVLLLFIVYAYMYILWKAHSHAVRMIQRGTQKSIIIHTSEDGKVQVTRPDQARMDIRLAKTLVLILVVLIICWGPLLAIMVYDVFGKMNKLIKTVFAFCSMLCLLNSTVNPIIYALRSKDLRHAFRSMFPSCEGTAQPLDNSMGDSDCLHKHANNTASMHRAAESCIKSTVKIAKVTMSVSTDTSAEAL
Method: (§1) Competition ligand binding assays were performed with the non-selective cannabinoid receptor agonist ([^3H]CP 55,940) (0.75 nM) in the binding buffer containing 50 mM Tris-HCl, pH 7.4, 3 mM MgCl2, 1 mM EDTA, 0.2% BSA using CHO-k1 cell membranes stably expressing human CB1 receptors or mouse brain membrane preparations in 96-well plate format. The receptor membranes (10 μg/well) were pre-incubated with different concentrations of tested compounds in the binding buffer at room temperature for 30 min prior to addition of 0.75 nM [^3H]CP 55,940 in a final volume of 100 μl. The binding was carried out at room temperature for another 2 h. To determine the non-specific binding, experiments were also performed in the presence of 10 μM unlabeled CP 55,940. Binding was terminated by addition of cold binding buffer and filtrated on Whatman GF/B glass-fiber filters using a sampling manifold. The filters were washed 6 times with cold binding buffer and air-dried overnight. The radioactivity was quantitated on a TopCounter (PerkinElmer) after adding scintillation fluid. Specific binding was defined as the difference between the binding in the presence and absence of 10 μM unlabeled CP 55, 940.

[5] = biological target: T1, CB1 receptor; assay: Dissociation kinetics assay with [3H]CP 55,940 on CHO-k1 cell membranes; assay type: binding; parameters: expressed in transfected cells; host or cells: CHO-k1 cell membranes; settings: 0.75 nM [3H]CP 55,940, room temperature, FIG. 3
Method: Dissociation kinetics assays were performed with the non-selective cannabinoid receptor agonist ([^3H]CP 55,940) (0.75 nM) in the binding buffer containing 50 mM Tris-HCl, pH 7.4, 3 mM MgCl2, 1 mM EDTA, 0.2% BSA using CHO-k1 cell membranes stably expressing human CB1 receptors in 96-well plate format. The CB1 receptor membranes (10 μg/well) were incubated with 0.75 nM [^3H]CP 55,940 in 100 μl binding buffer at room temperature for 2 h. Dissociation was initiated with addition of 100 μl unlabeled CP 55,940 (10 μM) in binding buffer in the absence or presence of different concentrations of compounds (compound 7). Dissociation was carried out at room temperature for indicated time. To determine the non-specific binding, experiments were also performed in the presence of 10 μM unlabeled CP 55,940. Binding was terminated by addition of cold binding buffer and filtrated on Whatman GF/B glass-fiber filters using a sampling manifold. The filters were washed 6 times with cold binding buffer and air-dried overnight. The radioactivity was quantitated on a TopCounter (PerkinElmer) after adding scintillation fluid. Specific binding was defined as the difference between the binding in the presence and absence of 10 μM unlabeled CP 55,940.

[6] = biological target: T1, CB1 receptor; assay: [35S]GTPγS binding assay on CHO-k1 cell membranes; assay type: biochemical; parameters: expressed in transfected cells; host or cells: CHO-k1 cell membranes
Method: [^35S]GTPγS binding assays were performed with CHO-k1 cell membranes stably expressing human CB1 receptors in 96-well ScintiPlate (PerkinElmer). The membranes (12.5 μg/well) were preincubated with compound 7 in the binding buffer (50 mM Tris-HCl, pH 7.4, 100 mM NaCl, 3 mM MgCl2, 0.2 mM EDTA, 0.2% BSA and 10 μM GDP) at 30° C. for 30 min, then added various concentrations of agonists (WIN 55212-2 or CP 55,940) and [^35S]GTPγS (0.2 nM) in a final volume of 200 μl. Reactions were carried out at 30° C. for 60 min, followed by centrifugation of plate at […] for 15 min. After removing supernatant, the radioactivity was quantitated on a TopCounter.

[7] = biological target: T1, CB1 receptor; assay: Competition ligand binding assay, CHO-k1 cell membranes; parameters: expressed in transfected cells; host or cells: CHO-k1 cell membranes; settings: 0.75 nM radioligand, FIG. 6
Method: as §1

[8] = Body weight of diet-induced obese mice, repeated oral administration (Example 2); assay type: in vivo, male C57BL/6J mice; settings: for reduction of body weight: dosed for 28 days, DIO mice, FIG. 8
Method: Sixty-five C57BL/6J mice (7-8 weeks of age) were ordered from Charles River, Margate, Kent. Mice were group housed in polypropylene cages with free access to a high fat diet (D12451 45% of Kcal derived from fat; Research Diets, New Jersey, USA) and tap water at all times. Animals were maintained at 21±4° C. and 55±20% humidity on a normal phase 12 h light-dark cycle (lights on 04:30 h)
Body weight and food and water intake were recorded daily. Following drug administration the animals were examined and any overt behaviour was recorded. For all dosing, the morning session was timed such that approximately half the mice were dosed at the time of lights out (09:30).
The test compounds were dissolved in 1% methylcellulose. Drugs were made up fresh each day 1-2 h before dosing and were administered using a dose volume in the range of 1-3 ml/kg. Drug doses were expressed as free base.
P<0.05 was considered to be statistically significant. Daily food and water intake data was analysed by ANOVA.

[9] = Acute administration: wet mash and food intake and 24 h body weight in lean mice (Example 3); assay type: in vivo, male C57BL/6J mice; settings: dosed orally at 10 mg/kg, one-way ANOVA
[10] = Body weight of diet-induced obese mice, chronic administration of Treatment E (Example 4)

T1 sequence (P21554 whole entry): as the sequence (P21554 whole entry) above

SMILES: NCCC(Oc1ccc(C(F)(F)F)cc1)c1ccccc1 (racemic) [racemate of norfluoxetine, 3-(4-trifluoromethylphenoxy)-3-phenylpropylamine]
- functional activity versus the CB1 receptor [1]: antagonist

SMILES: CNCC[C@@H](Oc1ccc(C(F)(F)F)cc1)c1ccccc1 [(R)-fluoxetine]
- functional activity versus the CB1 receptor [1]: antagonist

SMILES: CNCC[C@H](Oc1ccc(C(F)(F)F)cc1)c1ccccc1 [(S)-Fluoxetine]
- functional activity versus the CB1 receptor [1]: inverse agonist

SMILES: Fc1ccc(C(OCCCc2c[nH]cn2)c2ccc(F)cc2)cc1 [compound 7]
- effect on the 2-AG dose response (Ca2+i) [2]: right shift
- effect on the 2-AG dose response (Ca2+i) [3]: No effect
- inhibition of agonist (CP 55940) binding ([4]; mouse brain membrane, FIG. 7): inhibited
- inhibition of antagonist/inverse agonist (SR 141716) binding ([4]; mouse brain membrane, FIG. 7): inhibited
- inhibition of binding of [3H]CP 55,940 ([4]; mouse brain membranes, 0.75 nM radioligand, FIG. 6): almost fully inhibited
- effect on the dissociation rate of [3H]CP 55,940 [5]: no effect
- pA2 estimation using CP 55940 as an agonist ([6]; CB1 cell line, FIG. 4): did not support an allosteric effect
- [35S]GTPγS binding: antagonist versus inverse agonist activity ([6]; response dropped below basal levels, FIG. 5): inverse agonist activity
- inhibition of binding of [3H]CP 55,940 [7]: partially inhibited

SMILES: Cc1c(C(=O)NN2CCCCC2)nn(-c2ccc(Cl)cc2Cl)c1-c1ccc(Cl)cc1 [rimonabant]
- reduction of body weight ([8]; 10 mg/kg po): 15%
- weight reduction as compared to vehicle on day 29 (Dunnett's test) ([8]; 10 mg/kg po, p<0.001, DIO mice): statistically significant weight reduction
- 24 hour body weight change versus vehicle [9]: No significant differences
- body weight versus vehicle [9]: No significant differences
- daily food intake versus vehicle [9]: No significant differences
- reduction in body weight ([10]; 10 mg/kg orally, chronic administration, DIO mice, FIG. 22): 15%
- weight reduction as compared to vehicle on day 29 (Dunnett's test) ([10]; dosed orally at 10 mg/kg, p<0.001): statistically significant weight reduction

SMILES: CC(C)CC(N(C)C)C1(c2ccc(Cl)cc2)CCC1 (centres unmarked) [sibutramine]
- reduction of body weight ([8]; 20 mg/kg po): 2%
